{"source": "patent US9587171B2", "about": "“Ammonium salts of chelating agents and their use in oil and gas field applications” (AKZO NOBEL CHEMICALS INTERNATIONAL B.V., priority 2010, dated 2017)", "experiment": "Descaling efficiency for iron sulfide (FeS) at pH 3.8 as a function of temperature", "format": "physicochemical", "settings": "20° C., 24 hours, FIG. 4", "protocol": "The Parr bomb was placed in an oven at 90° C. The beaker glass was closed with parafilm. After 24 hours at temperature the samples were filtered by a 0.45 micron filter prior to ICP-ES analysis. The descaling efficiency was calculated from the iron concentration in the liquid and the initial amount of FeS.", "data": [{"smiles": "O=C([O-])CC[C@@H](C(=O)[O-])N(CC(=O)[O-])CC(=O)[O-].[Na+].[Na+].[Na+].[Na+]", "note": "[sodium GLDA]", "values": [{"measurement": "descaling efficiency for FeS at low temperature", "result": "dissolved more FeS at low temperature"}]}]}
